Test results from patent US12662451B2, “Chemical compounds and uses thereof” (GLAXOSMITHKLINE INTELLECTUAL PROPERTY (NO.4) LIMITED, priority 2023, dated 2026).

Columns and labels:
[1] = system: SW48 human colorectal cancer cells (MSI-H cancer cells); assay: SW48 cell viability, CellTiter-Glo, 120 hours (Example B); settings: Homo sapiens, SW48, 120 h, read-out: SW48 pCC50, SW48 cell viability, 120 hours incubation (converted); Table 2
Protocol: SW48 human colorectal cancer cells (MSI-H cancer cells) were obtained from the American Type Culture Collection and maintained in growth medium composed of RPMI-1640 supplemented with 10% fetal bovine serum. Cells were maintained in a humidified 5% CO2 incubator at 37° C. Cell dissociation was conducted using TrypLE Select to detach cells from culture flasks. Following dissociation, cells were centrifuged briefly and resuspended in assay medium RPMI-1640+10% fetal bovine serum. Black 384-well assay plates were prepared from source plates of DMSO and compounds dissolved in DMSO prior to cell dispensation. These source plates were prepared in eleven point, 3-fold serial dilutions from 10 mM stocks stored at 4° C. Compounds and DMSO controls were dispensed into assay plates at 150 nanoliters per well from source plates using Labcyte Echo 555 or Echo 655T dispensers with Column 6 and Column 18 containing DMSO only. Cells were then seeded into prepared assay plates in 50 microliters assay medium at 250 cells per well into Columns 1 thru 17 and Columns 19-24. Assay medium without cells was added to column 18 to serve as a surrogate for 100% cell cytotoxicity. Following incubation for 120 hours in a humidified 5% CO2 incubator at 37° C., cellular ATP concentration of each well was measured and used as a surrogate of cell viability. This was performed by adding 50 microliters of CellTiter-Glo reagent to each well followed by a 10-minute incubation at room temperature. Luminescence was measured on a Synergy Neo or Synergy Neo2 multimode plate reader. Compound cytotoxic response (% C) was normalized to the robust means of column 6 (Control 1, 0% Cytotoxicity) and column 18 (Control 2, 100% Cytotoxicity) and normalized % cytotoxicity (% C) calculated. % C=100−100*((Compound−Control 2)/(Control1−Control2)). These normalized data were then used to determine a 50% cytotoxic response (CC50) using 4-parameter logistic curve model 201 in Activity Base XE:
[formula] • where A=minimum asymptote (% cytotoxicity), B=maximum asymptote (% cytotoxicity), C=Log CC50 (pCC50), D=Hill slope, and x=[inhibitor], (M).

[2] = biological target: T1, recombinant full-length WRN protein (1-1432) (Homo sapiens, UniProt Q14191); assay: WRN unwinding activity, fluorogenic 384-well assay (Example A); assay type: biochemical; settings: WRN unwinding activity, 4 hr; Table 2; read-out: 4 hr UNW pIC50 (converted)
T1 construct: recombinant full-length WRN protein (1-1432)
In short: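 200 pM enzyme (2× stock) preincubated with compound 4 h at ambient temperature, then 200 μM ATP and 12 nM quenched TAMRA-labelled dsDNA (2× stocks) added for 60 min; EDTA-quenched. Buffer 25 mM Tris pH 8.0, 5 mM NaCl, 2 mM MgCl2. Fluorescence at 525/598 nm; pIC50 from four-parameter fit.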

T1 sequence (Q14191 whole entry): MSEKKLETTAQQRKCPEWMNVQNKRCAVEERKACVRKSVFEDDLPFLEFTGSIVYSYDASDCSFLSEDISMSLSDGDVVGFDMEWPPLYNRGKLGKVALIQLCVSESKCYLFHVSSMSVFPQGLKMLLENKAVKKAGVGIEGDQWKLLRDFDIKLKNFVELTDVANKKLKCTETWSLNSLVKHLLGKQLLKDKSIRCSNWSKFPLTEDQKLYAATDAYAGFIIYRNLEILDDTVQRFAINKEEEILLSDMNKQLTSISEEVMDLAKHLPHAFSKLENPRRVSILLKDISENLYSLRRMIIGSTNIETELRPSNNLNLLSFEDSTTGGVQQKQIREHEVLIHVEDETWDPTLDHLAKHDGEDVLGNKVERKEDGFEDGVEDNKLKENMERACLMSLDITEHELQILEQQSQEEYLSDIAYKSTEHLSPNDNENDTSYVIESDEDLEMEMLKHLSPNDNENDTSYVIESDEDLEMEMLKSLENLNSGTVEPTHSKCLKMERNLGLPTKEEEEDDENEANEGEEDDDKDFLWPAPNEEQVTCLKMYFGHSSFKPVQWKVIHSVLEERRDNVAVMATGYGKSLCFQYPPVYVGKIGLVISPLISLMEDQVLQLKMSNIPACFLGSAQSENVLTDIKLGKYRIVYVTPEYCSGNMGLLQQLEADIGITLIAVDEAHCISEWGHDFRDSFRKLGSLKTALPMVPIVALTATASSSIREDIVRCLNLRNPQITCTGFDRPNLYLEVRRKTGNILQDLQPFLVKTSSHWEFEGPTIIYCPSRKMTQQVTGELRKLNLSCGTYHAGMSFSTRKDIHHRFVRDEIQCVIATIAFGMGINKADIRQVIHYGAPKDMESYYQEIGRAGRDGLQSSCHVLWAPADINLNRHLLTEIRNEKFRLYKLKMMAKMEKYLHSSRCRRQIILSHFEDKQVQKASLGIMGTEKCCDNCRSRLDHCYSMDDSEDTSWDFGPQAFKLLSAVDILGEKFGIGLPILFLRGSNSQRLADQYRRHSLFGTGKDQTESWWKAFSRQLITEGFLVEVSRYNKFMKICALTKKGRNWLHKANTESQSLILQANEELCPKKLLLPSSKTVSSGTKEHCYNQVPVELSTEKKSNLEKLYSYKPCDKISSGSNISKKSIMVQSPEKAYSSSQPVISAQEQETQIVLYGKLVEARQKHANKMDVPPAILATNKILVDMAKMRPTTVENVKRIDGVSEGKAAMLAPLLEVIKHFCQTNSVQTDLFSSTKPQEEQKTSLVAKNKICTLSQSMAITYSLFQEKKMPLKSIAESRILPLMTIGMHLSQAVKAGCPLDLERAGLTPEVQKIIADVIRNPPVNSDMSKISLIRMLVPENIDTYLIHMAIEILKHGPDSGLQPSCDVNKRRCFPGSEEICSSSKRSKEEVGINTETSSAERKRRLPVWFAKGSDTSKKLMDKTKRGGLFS

Row | SMILES | IC50 [2] | CC50 [1]
1 | Cc1nc2cc(S(=O)(=O)N(C)c3ccc([C@@H]4C[C@@H](N5CCC(F)(F)C5)C[C@H](C(=O)Nc5ccc(C(F)(F)F)cc5F)[C@H]4C(=O)O)cc3)ccc2n1C (stereo in doubt) [Example 303, rel-(1R,2R,4S,6S)-4-(3,3-difluoropyrrolidin-1-yl)-2-((2-fluoro-4-(trifluoromethyl)phenyl)carbamoyl)-6-(4-((N,1,2-trimethyl-1H-benzo[d]imidazole)-5-sulfonamido)phenyl)cyclohexane-1-carboxylic acid] | 3980 nM | 25.1 µM
2 | Cc1nc2cc(S(=O)(=O)N(C)c3ccc([C@H]4C[C@H](N5CCC(F)(F)C5)C[C@@H](C(=O)Nc5ccc(C(F)(F)F)cc5F)[C@@H]4C(=O)O)cc3)ccc2n1C (stereo in doubt) [Example 304, rel-(1R,2R,4S,6S)-4-(3,3-difluoropyrrolidin-1-yl)-2-((2-fluoro-4-(trifluoromethyl)phenyl)carbamoyl)-6-(4-((N,1,2-trimethyl-1H-benzo[d]imidazole)-5-sulfonamido)phenyl)cyclohexane-1-carboxylic acid] | 15.8 nM | 12.6 µM
3 | Cc1nc2cc(S(=O)(=O)N(C)c3ccc([C@@H]4C[C@H](OC[C@H]5CCOC5)C[C@H](C(=O)Nc5ccc(C(F)(F)F)cc5F)[C@H]4C(=O)O)cc3)ccc2n1C (stereo in doubt) [Example 318, (1R*,2R*,4R*,6S*)-2-((2-fluoro-4-(trifluoromethyl)phenyl)carbamoyl)-4-(((S)-tetrahydrofuran-3-yl)methoxy)-6-(4-((N,1,2-trimethyl-1H-benzo[d]imidazole)-5-sulfonamido)phenyl)cyclohexane-1-carboxylic acid] | 200 nM | 12.6 µM
4 | Cc1nc2cc(S(=O)(=O)N(C)c3ccc([C@@H]4C[C@H](OC[C@@H]5CCOC5)C[C@H](C(=O)Nc5ccc(C(F)(F)F)cc5F)[C@H]4C(=O)O)cc3)ccc2n1C (stereo in doubt) [Example 319, (1R*,2R*,4R*,6S*)-2-((2-fluoro-4-(trifluoromethyl)phenyl)carbamoyl)-4-(((R)-tetrahydrofuran-3-yl)methoxy)-6-(4-((N,1,2-trimethyl-1H-benzo[d]imidazole)-5-sulfonamido)phenyl)cyclohexane-1-carboxylic acid] | 316 nM | 12.6 µM
5 | Cc1nc2cc(S(=O)(=O)N(C)c3ccc([C@@H]4C[C@H](OC[C@H]5COCCO5)C[C@H](C(=O)Nc5ccc(C(F)(F)F)cc5F)[C@H]4C(=O)O)cc3)ccc2n1C (stereo in doubt) [Example 328, (1R*,2R*,4R*,6S*)-4-(((R)-1,4-dioxan-2-yl)methoxy)-2-((2-fluoro-4-(trifluoromethyl)phenyl)carbamoyl)-6-(4-((N,1,2-trimethyl-1H-benzo[d]imidazole)-5-sulfonamido)phenyl)cyclohexane-1-carboxylic acid] | 126 nM | 15.8 µM
6 | Cc1nc2cc(S(=O)(=O)N(C)c3ccc([C@@H]4C[C@H](OCC5CCOCC5)C[C@H](C(=O)Nc5ccc(C(F)(F)F)cc5F)[C@H]4C(=O)O)cc3)ccc2n1C (stereo in doubt) [Example 354, rel-(1R,2R,4R,6S)-2-((2-fluoro-4-(trifluoromethyl)phenyl)carbamoyl)-4-((tetrahydro-2H-pyran-4-yl)methoxy)-6-(4-((N,1,2-trimethyl-1H-benzo[d]imidazole)-5-sulfonamido)phenyl)cyclohexane-1-carboxylic acid] | 1580 nM | 20 µM
7 | Cc1nc2cc(S(=O)(=O)N(C)c3ccc([C@@H]4C[C@H](OCC5(C)COC5)C[C@H](C(=O)Nc5ccc(C(F)(F)F)cc5F)[C@H]4C(=O)O)cc3)ccc2n1C (stereo in doubt) [Example 366, rel-(1R,2R,4R,6S)-2-((2-fluoro-4-(trifluoromethyl)phenyl)carbamoyl)-4-((3-methyloxetan-3-yl)methoxy)-6-(4-((N,1,2-trimethyl-1H-benzo[d]imidazole)-5-sulfonamido)phenyl)cyclohexane-1-carboxylic acid] | 126 nM | 15.8 µM
8 | Cc1nc2cc(S(=O)(=O)N(C)c3ccc([C@@H]4C[C@@H](N5CC[C@H](F)C5)C[C@H](C(=O)Nc5ccc(C(F)(F)F)cc5F)[C@H]4C(=O)O)cc3)ccc2n1C (stereo in doubt) [Example 379, rel-(1R*,2R*,4S*,6S*)-2-((2-fluoro-4-(trifluoromethyl)phenyl)carbamoyl)-4-((S)-3-fluoropyrrolidin-1-yl)-6-(4-((N,1,2-trimethyl-1H-benzo[d]imidazole)-5-sulfonamido)phenyl)cyclohexane-1-carboxylic acid] | 501 nM | 20 µM

Continued, in another order:

Row | IC50 [2] | SMILES | CC50 [1]
9 | 1.58 nM | Cc1nc2cc(S(=O)(=O)N(C)c3ccc([C@H]4C[C@H](N)C[C@@H](C(=O)Nc5ccc(C(F)(F)F)cc5F)[C@@H]4C(=O)O)cc3)ccc2n1C (stereo in doubt) [Example 300, rel-(1R,2R,4S,6S)-4-amino-2-((2-fluoro-4-(trifluoromethyl)phenyl)carbamoyl)-6-(4-((N,1,2-trimethyl-1H-benzo[d]imidazole)-5-sulfonamido)phenyl)cyclohexane-1-carboxylic acid] | 12.6 µM
10 | 158 nM | Cc1nc2cc(S(=O)(=O)N(C)c3ccc([C@@H]4C[C@H](OC(C)C)C[C@H](C(=O)Nc5ccc(C(F)(F)F)cc5F)[C@H]4C(=O)O)cc3)ccc2n1C (stereo in doubt) [Example 312, rel-(1R,2R,4R,6S)-2-((2-fluoro-4-(trifluoromethyl)phenyl)carbamoyl)-4-isopropoxy-6-(4-((N,1,2-trimethyl-1H-benzo[d]imidazole)-5-sulfonamido)phenyl)cyclohexane-1-carboxylic acid] | 12.6 µM
11 | 251 nM | Cc1nc2cc(S(=O)(=O)N(C)c3ccc([C@@H]4C[C@H](OCC5CC5)C[C@H](C(=O)Nc5ccc(C(F)(F)F)cc5F)[C@H]4C(=O)O)cc3)ccc2n1C (stereo in doubt) [Example 313, rel-(1R,2R,4R,6S)-4-(cyclopropylmethoxy)-2-((2-fluoro-4-(trifluoromethyl)phenyl)carbamoyl)-6-(4-((N,1,2-trimethyl-1H-benzo[d]imidazole)-5-sulfonamido)phenyl)cyclohexane-1-carboxylic acid] | 20 µM
12 | 398 nM | Cc1nc2cc(S(=O)(=O)N(C)c3ccc([C@@H]4C[C@H](N5CCC[C@@H](F)C5)C[C@H](C(=O)Nc5ccc(C(F)(F)F)cc5F)[C@H]4C(=O)O)cc3)ccc2n1C (stereo in doubt) [Example 345, rel-(1R*,2R*,4R*,6S*)-2-((2-fluoro-4-(trifluoromethyl)phenyl)carbamoyl)-4-((R)-3-fluoropiperidin-1-yl)-6-(4-((N,1,2-trimethyl-1H-benzo[d]imidazole)-5-sulfonamido)phenyl)cyclohexane-1-carboxylic acid] | 12.6 µM
13 | 398 nM | Cc1nc2cc(S(=O)(=O)N(C)c3ccc([C@@H]4C[C@@H](N5CC[C@@H](F)C5)C[C@H](C(=O)Nc5ccc(C(F)(F)F)cc5F)[C@H]4C(=O)O)cc3)ccc2n1C (stereo in doubt) [Example 384, rel-(1R*,2R*,4S*,6S*)-2-((2-fluoro-4-(trifluoromethyl)phenyl)carbamoyl)-4-((R)-3-fluoropyrrolidin-1-yl)-6-(4-((N,1,2-trimethyl-1H-benzo[d]imidazole)-5-sulfonamido)phenyl)cyclohexane-1-carboxylic acid] | 25.1 µM
14 | 63.1 nM | Cc1nc2cc(S(=O)(=O)N(C)c3ccc([C@@H]4C[C@@]5(CCCO5)C[C@H](C(=O)Nc5ccc(C(F)(F)F)cc5F)[C@H]4C(=O)O)cc3)ccc2n1C (stereo in doubt) [Example 387, rel-(5R,7R,8R,9S)-7-((2-fluoro-4-(trifluoromethyl)phenyl)carbamoyl)-9-(4-((N,1,2-trimethyl-1H-benzo[d]imidazole)-5-sulfonamido)phenyl)-1-oxaspiro[4.5]decane-8-carboxylic acid] | 10 µM
15 | 1000 nM | O=C(O)[C@@H]1[C@@H](c2ccc(-c3cccc4[nH]ncc34)cc2)CCC[C@H]1C(=O)Nc1ccc(C(F)(F)F)cc1F [Example 1, (1R,2S,6R)-2-(4-(1H-indazol-4-yl)phenyl)-6-((2-fluoro-4-(trifluoromethyl)phenyl)carbamoyl)cyclohexane-1-carboxylic acid] | 10 µM
16 | 1260 nM | O=C(O)[C@@H]1[C@@H](c2ccc(-c3cccc4cnccc34)cc2)CCC[C@H]1C(=O)Nc1ccc(C(F)(F)F)cc1F [Example 2, (1R,2R,6S)-2-((2-fluoro-4-(trifluoromethyl)phenyl)carbamoyl)-6-(4-(isoquinolin-5-yl)phenyl)cyclohexane-1-carboxylic acid] | 12.6 µM
17 | 3.98 nM | Cn1nccc1-c1ccc([C@H]2CCC[C@@H](C(=O)Nc3ccc(C(F)(F)F)cc3F)[C@@H]2C(=O)O)cc1 [Example 3, (1R,2R,6S)-2-((2-fluoro-4-(trifluoromethyl)phenyl)carbamoyl)-6-(4-(1-methyl-1H-pyrazol-5-yl)phenyl)cyclohexane-1-carboxylic acid] | 10 µM
18 | 6.31 nM | O=C(O)[C@@H]1[C@@H](c2ccc(-c3cncnc3)cc2)CCC[C@H]1C(=O)Nc1ccc(C(F)(F)F)cc1F [Example 6, (1R,2R,6S)-2-((2-fluoro-4-(trifluoromethyl)phenyl)carbamoyl)-6-(4-(pyrimidin-5-yl)phenyl)cyclohexane-1-carboxylic acid] | 10 µM
19 | 3.98 nM | O=C(O)[C@@H]1[C@@H](c2ccc(-c3cccnc3)cc2)CCC[C@H]1C(=O)Nc1ccc(C(F)(F)F)cc1F [Example 8, (1R,2R,6S)-2-((2-fluoro-4-(trifluoromethyl)phenyl)carbamoyl)-6-(4-(pyridin-3-yl)phenyl)cyclohexane-1-carboxylic acid] | 7.94 µM
